Source: US12540137B2, “N-1 branched alkyl ether substituted imidazo[4,5-c]quinoline compounds, compositions, and methods” (Solventum Intellectual Properties Company, priority 2018, dated 2026)

Columns and labels:
human TLR8 = target: T1, human TLR8 (Homo sapiens, UniProt Q9NR97); test: TLR activation, HEK-BLUE-hTLR8 SEAP reporter cells; assay type: cell-based; conditions: 16-20 hours, SEAP response at least 2× vehicle control, tested 0.01-30 micromolar
T1 construct: host or cells: HEK293 (HEK-BLUE-hTLR8)
T1 sequence (Q9NR97 27-1041): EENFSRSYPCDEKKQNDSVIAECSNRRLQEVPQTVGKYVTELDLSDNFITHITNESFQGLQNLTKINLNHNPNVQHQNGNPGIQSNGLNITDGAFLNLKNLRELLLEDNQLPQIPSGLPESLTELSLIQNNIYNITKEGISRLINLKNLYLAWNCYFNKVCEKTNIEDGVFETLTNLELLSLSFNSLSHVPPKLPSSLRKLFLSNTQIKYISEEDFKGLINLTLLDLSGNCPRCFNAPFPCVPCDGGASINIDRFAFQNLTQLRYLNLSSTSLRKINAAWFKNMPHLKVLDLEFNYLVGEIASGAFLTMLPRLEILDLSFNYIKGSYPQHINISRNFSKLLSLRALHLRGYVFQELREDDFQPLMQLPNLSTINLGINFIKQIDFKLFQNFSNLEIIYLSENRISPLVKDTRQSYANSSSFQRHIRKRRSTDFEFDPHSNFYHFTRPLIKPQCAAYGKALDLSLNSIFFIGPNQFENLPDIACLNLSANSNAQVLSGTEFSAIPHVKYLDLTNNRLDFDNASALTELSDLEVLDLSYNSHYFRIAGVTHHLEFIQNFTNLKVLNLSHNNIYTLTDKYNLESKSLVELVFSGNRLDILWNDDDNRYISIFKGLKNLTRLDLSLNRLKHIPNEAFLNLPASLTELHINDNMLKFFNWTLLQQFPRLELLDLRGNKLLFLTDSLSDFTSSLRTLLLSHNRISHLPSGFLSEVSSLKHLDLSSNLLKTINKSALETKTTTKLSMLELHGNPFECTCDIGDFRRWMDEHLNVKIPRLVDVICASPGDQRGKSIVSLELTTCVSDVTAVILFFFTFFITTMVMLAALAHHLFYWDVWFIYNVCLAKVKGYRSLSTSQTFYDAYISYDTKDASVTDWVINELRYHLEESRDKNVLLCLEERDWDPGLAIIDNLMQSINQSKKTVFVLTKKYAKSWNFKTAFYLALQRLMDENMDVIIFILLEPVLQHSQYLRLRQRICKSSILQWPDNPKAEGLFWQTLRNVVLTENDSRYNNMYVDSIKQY
Description: (§1) HEK-BLUE-hTLR7 or hTLR8 reporter cells were obtained from InvivoGen, San Diego, CA. According to the manufacturer's description, these reporter cells were prepared by co-transfection of HEK293 cells with an inducible secreted embryonic alkaline phosphatase (SEAP) reporter gene and either the human TLR7 or TLR8 gene. The SEAP reporter gene was placed under the control of an IFN−β minimal promoter fused to five NF-κB and AP-1-binding sites. In the presence of a TLR ligand, activation of NF-κB and AP-1 occurs, resulting in a corresponding increase in SEAP levels.
(§2) In the assay, the HEK cells were grown and maintained using standard cell culture techniques in a growth medium that contained Dulbecco's Modified Eagle Medium (ThermoFisher Scientific Incorporated, Waltham, MA) supplemented with 1% penicillin/streptomycin and 10% heat-inactivated Gibco fetal bovine serum (ThermoFisher Scientific). Each compound was solubilized in DMSO to create a 3 mM stock solution. The stock solution was then further diluted with the growth medium to prepare serial dilutions. Each test compound was tested at a concentration of 30, 10, 3.3, 1.1, 0.37, 0.12, 0.04, and 0.01 micromolar using a 96-well format with 5×10^4 cells and 200 microliters of growth medium per well.
(§3) For each compound, hTLR7, hTLR8, and their respective null control HEK cells were screened. DMSO serially diluted into the growth medium served as the vehicle control. Cell culture supernatants containing the SEAP reporter were collected after an incubation period of 16-20 hours in a cell culture incubator (37° C. and 5% CO2), and either analyzed immediately or stored at −80° C. SEAP levels were measured using the colorimetric enzyme assay (QUANTI-BLUE (InvivoGen) according to manufacturer's instructions.
(§4) Specifically, the minimum effective concentration of each compound (micromolar) was determined as the lowest concentration of the compound that produced a SEAP expression response at least 2× greater than that observed with the vehicle control wells.

human TLR7 = target: T2, human TLR7 (Homo sapiens, UniProt Q9NYK1); test: TLR activation, HEK-BLUE-hTLR7 SEAP reporter cells; assay type: cell-based; conditions: 16-20 hours, SEAP response at least 2× vehicle control, tested 0.01-30 micromolar
T2 construct: host or cells: HEK293 (HEK-BLUE-hTLR7)
T2 sequence (Q9NYK1 27-1049): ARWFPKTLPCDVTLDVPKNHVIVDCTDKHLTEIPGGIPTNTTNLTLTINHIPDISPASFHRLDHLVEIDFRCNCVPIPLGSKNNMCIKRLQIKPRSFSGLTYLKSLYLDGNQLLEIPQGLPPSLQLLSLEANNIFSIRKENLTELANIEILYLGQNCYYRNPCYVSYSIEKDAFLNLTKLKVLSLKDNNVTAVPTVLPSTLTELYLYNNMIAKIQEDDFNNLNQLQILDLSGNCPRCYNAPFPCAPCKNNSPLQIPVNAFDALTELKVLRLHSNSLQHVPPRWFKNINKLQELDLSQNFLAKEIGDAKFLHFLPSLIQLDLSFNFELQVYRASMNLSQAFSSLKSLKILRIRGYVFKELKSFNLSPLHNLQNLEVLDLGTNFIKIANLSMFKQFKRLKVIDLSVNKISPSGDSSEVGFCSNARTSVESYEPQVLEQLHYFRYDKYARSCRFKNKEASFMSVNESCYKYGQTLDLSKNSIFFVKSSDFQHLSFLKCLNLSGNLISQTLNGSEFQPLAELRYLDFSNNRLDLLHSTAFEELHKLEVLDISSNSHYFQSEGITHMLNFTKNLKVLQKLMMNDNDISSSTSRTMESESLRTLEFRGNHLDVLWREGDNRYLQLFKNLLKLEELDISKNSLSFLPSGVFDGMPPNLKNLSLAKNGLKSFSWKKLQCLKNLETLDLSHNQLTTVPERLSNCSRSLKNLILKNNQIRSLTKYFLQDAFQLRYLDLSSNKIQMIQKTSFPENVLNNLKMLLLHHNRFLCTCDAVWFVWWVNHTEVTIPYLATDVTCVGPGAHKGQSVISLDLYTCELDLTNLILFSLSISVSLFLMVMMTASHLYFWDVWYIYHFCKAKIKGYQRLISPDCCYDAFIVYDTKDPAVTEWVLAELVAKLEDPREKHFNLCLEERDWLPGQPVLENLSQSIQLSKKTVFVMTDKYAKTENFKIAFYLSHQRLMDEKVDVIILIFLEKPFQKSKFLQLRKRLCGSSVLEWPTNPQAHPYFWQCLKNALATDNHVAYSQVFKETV
Description: as §1, §2, §3, §4

MEC to Produce TLR Activation TLR 8 (human TLR8): 30 µM
MEC to Produce TLR Activation TLR 7 (human TLR7): 0.04 µM
Structure (SMILES): CCOC[C@@H](n1cnc2c(N)nc3ccccc3c21)C1(O)CCCC1 [Example 14, 1-[(1R)-1-(4-aminoimidazo[4,5-c]quinolin-1-yl)-2-ethoxy-ethyl]cyclopentanol]
